Assay results: US10987349B2, “Antitumor agent and bromodomain inhibitor” (FUJIFILM Corporation, priority 2016, dated 2021)

Experiments:
[1] = target: T1, BRD4 BD2 (Homo sapiens, UniProt O60885); test: Binding assay, BRD4 BD2 to acetylated histone H4 Peptide-Biotin (EPIgeneous Binding Domain Kit B); conditions: test compound at 300 nmol/L; read-out: Binding inhibition percentage BRD4 BD2
T1 construct: BRD2 BD2, BRD3 BD2 and BRD4 BD2 (Cisbio); purchased Cisbio
Method: (§1) Moreover, BRD2 BD2, BRD3 BD2 and BRD4 BD2 (Cisbio), Peptide-Biotin (AnaSpec), and EPIgeneous (registered trademark) Binding Domain Kit B (Cisbio) were used to carry out an assay. That is, per well, 4 μL of BRD2 BD2, BRD3 BD2 or BRD4 BD2, which was adjusted to 20 nmol/L with Diluent buffer; 4 μL of 250 nmol/L Peptide-Biotin; 2 μL of Dilution buffer (Cisbio) containing DMSO or a test compound that was serially diluted with DMSO; 5 μL of 25 nmol/L Streptavidin-XL665; 5 μL of Anti-Gst-Eu+^3+ Cryptate Conjugate 50-fold diluted with Detection Buffer were added to a 384-well plate (Corning).
(§2) The obtained mixture was left at rest at room temperature for 20 hours, and thereafter, the fluoresence intensity at 665 nm and 620 nm was measured using Envision plate reader (Perkin Elmer), so that the inhibition percentage (%) of the test compound against the binding of a bromodomain in a bromodomain-containing protein to Peptide-Biotin was calculated. Binding inhibition percentage (%)=[1−{(fluorescence intensity at 665 nm of test compound−added well)/(fluorescence intensity at 620 nm of test compound−added well)}/{(fluorescence intensity at 665 nm of DMSO−added well)/(fluorescence intensity at 665 nm of DMSO−added well)}]×100
(§3) Moreover, using Graphpad prism 5 (GraphPad software), 50% inhibitory concentration [IC50 (nmol/L)] was calculated according to a non-linear regression analysis (log (inhibitor) vs. response—Variable slope (four parameters)).
(§4) Regarding other test compounds, each compound was diluted with DMSO to a final concentration of 300 nmol/L by the same method as that described above, and the binding inhibition percentage (%) of each test compound at 300 nmol/L against the binding of bromodomain in a bromodomain-containing protein to acetylated histone was calculated.

[2] = target: T2, BRD2 BD1 (Homo sapiens, UniProt P25440); test: Binding assay, BRD2 BD1 to acetylated histone H4 Peptide-Biotin (EPIgeneous Binding Domain Kit A); conditions: test compound at 300 nmol/L; read-out: Binding inhibition percentage BRD2 BD1
T2 construct: BRD2 BD1, BRD3 BD1 and BRD4 BD1 (Cisbio); purchased Cisbio
Method: (§5) BRD2 BD1, BRD3 BD1 and BRD4 BD1 (Cisbio), [Lys(Ac)5/8/12/16]-Histone H4(1-25)-GSGSK (Biotin) (hereinafter referred to as “Peptide-Biotin,” AnaSpec), and EPIgeneous (registered trademark) Binding Domain Kit A (Cisbio) were used to carry out an assay. That is to say, per well, 4 μL of BRD2 BD1, BRD3 BD1 or BRD4 BD1, which was adjusted to 20 nmol/L with Diluent buffer; 4 μL of 25 nmol/L Peptide-Biotin; 2 μL of Dilution buffer (Cisbio) containing dimethyl sulfoxide (DMSO) or a test compound that was serially diluted with DMSO; 5 μL of 2.5 nmol/L Streptavidin-d2; and 5 μL of Anti-Gst-Eu+^3+ Cryptate Conjugate 50-fold diluted with Detection Buffer were added to a 384-well plate (Corning).
as §2, §3, §4

[3] = target: T3, BRD2 BD2 (Homo sapiens, UniProt P25440); test: Binding assay, BRD2 BD2 to acetylated histone H4 Peptide-Biotin (EPIgeneous Binding Domain Kit B); conditions: test compound at 300 nmol/L; read-out: Binding inhibition percentage BRD2 BD2
T3 construct: BRD2 BD2, BRD3 BD2 and BRD4 BD2 (Cisbio); purchased Cisbio
Method: as §1, §2, §3, §4

[4] = target: T4, BRD4 BD1 (Homo sapiens, UniProt O60885); test: Binding assay, BRD4 BD1 to acetylated histone H4 Peptide-Biotin (EPIgeneous Binding Domain Kit A); conditions: test compound at 300 nmol/L; read-out: Binding inhibition percentage BRD4 BD1
T4 construct: BRD2 BD1, BRD3 BD1 and BRD4 BD1 (Cisbio); purchased Cisbio
Method: as §5, §2, §3, §4

[5] = target: T5, BRD3 BD2 (Homo sapiens, UniProt Q15059); test: Binding assay, BRD3 BD2 to acetylated histone H4 Peptide-Biotin (EPIgeneous Binding Domain Kit B); conditions: test compound at 300 nmol/L; read-out: Binding inhibition percentage BRD3 BD2
T5 construct: BRD2 BD2, BRD3 BD2 and BRD4 BD2 (Cisbio); purchased Cisbio
Method: as §1, §2, §3, §4

[6] = target: T6, BRD3 BD1 (Homo sapiens, UniProt Q15059); test: Binding assay, BRD3 BD1 to acetylated histone H4 Peptide-Biotin (EPIgeneous Binding Domain Kit A); conditions: test compound at 300 nmol/L; read-out: Binding inhibition percentage BRD3 BD1
T6 construct: BRD2 BD1, BRD3 BD1 and BRD4 BD1 (Cisbio); purchased Cisbio
Method: as §5, §2, §3, §4

T5 sequence (Q15059 306-415 limits assumed): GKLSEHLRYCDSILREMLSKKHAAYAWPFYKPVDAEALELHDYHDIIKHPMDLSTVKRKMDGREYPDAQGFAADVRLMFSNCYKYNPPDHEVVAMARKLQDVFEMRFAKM
T2 sequence (P25440 74-180 limits assumed): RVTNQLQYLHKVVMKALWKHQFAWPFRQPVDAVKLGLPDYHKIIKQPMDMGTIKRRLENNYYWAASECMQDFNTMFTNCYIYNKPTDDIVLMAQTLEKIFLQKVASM
T3 sequence (P25440 344-453 limits assumed): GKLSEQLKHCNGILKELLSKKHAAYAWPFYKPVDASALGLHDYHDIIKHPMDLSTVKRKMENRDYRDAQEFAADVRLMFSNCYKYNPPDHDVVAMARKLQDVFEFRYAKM
T6 sequence (Q15059 34-140 limits assumed): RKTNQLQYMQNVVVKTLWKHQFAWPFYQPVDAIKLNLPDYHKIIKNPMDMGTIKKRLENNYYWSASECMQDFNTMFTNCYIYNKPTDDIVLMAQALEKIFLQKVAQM

SMILES | inhibition at 0.3 µM [1] | inhibition at 0.3 µM [2] | inhibition at 0.3 µM [3] | inhibition at 0.3 µM [4] | inhibition at 0.3 µM [5] | inhibition at 0.3 µM [6]
CCn1c(=O)cc(C2CC2)c2cc(N(C)C(=O)c3ccccc3)ccc21 [Example 2, N-(4-cyclopropyl-1-ethyl-2-oxo-1,2-dihydroquinolin-6-yl)-N-methylbenzamide] | 86% | 52% | 89% | 85% | 91% | 85%
CCn1c(=O)cc(N2CCOCC2)c2cc(-n3c(-c4ccccc4)c[nH]c3=O)ccc21 [Example 3, 1-ethyl-4-(morpholin-4-yl)-6-(2-oxo-5-phenyl-2,3-dihydro-1H-imidazol-1-yl)quinolin-2(1H)-one] | 89% | 91% | 89% | 94% | 91% | 94%
CCN1CCC(c2cc(=O)n(CC)c3ccc(C(=O)N(C)c4ccccc4)cc23)CC1 [Example 8, 1-ethyl-4-(1-ethylpiperidin-4-yl)-N-methyl-2-oxo-N-phenyl-1,2-dihydroquinoline-6-carboxamide] | 74% | 93% | 79% | 94% | 67% | 94%
CCn1c(=O)cc(C(C)C)c2cc(N(C)C(=O)c3ccc(Cl)cc3)ccc21 [Example 16, 4-Chloro-N-(1-ethyl-2-oxo-4-(propan-2-yl)-1,2-dihydroquinolin-6-yl)-N-methylbenzamide] | 88% | 44% | 87% | 70% | 92% | 79%
CCn1c(=O)cc(N2CCOCC2)c2cc(-c3cnn(C)c3-c3ccccc3)ccc21 [Example 18, 1-Ethyl-6-(1-methyl-5-phenyl-1H-pyrazol-4-yl)-4-(morpholin-4-yl)quinolin-2(1H)-one] | 85% | 89% | 86% | 94% | 88% | 93%
CCn1c(=O)cc(C2CCN(CCO)CC2)c2cc(C(=O)N(C)c3ccc4c(c3)CCCC4)ccc21 [Example 179, 1-ethyl-4-(1-(2-hydroxyethyl)piperidin-4-yl)-N-methyl-2-oxo-N-(5,6,7,8-tetrahydronaphthalen-2-yl)-1,2-dihydroquinoline-6-carboxamide] | 88% | 93% | 88% | 95% | 92% | 94%
CCn1c(=O)cc(C2CCN(C(=O)C(C)C)CC2)c2cc(C(=O)N(C)c3ccc(C)cc3)ccc21 [Example 183, 1-ethyl-N-methyl-N-(4-methylphenyl)-4-(1-(2-methylpropanoyl)piperidin-4-yl)-2-oxo-1,2-dihydroquinoline-6-carboxamide] | 83% | 81% | 71% | 94% | 80% | 92%
CCn1c(=O)cc(C2CCN(CCO)CC2)c2cc(C(=O)N(C)c3ccc4c(c3)CCCCC4)ccc21 [Example 191] | 88% | 94% | 87% | 94% | 92% | 95%
Cc1ccc(N(C)C(=O)c2ccc3c(c2)c(C2CCN(C)CC2)cc(=O)n3C)cc1 [Example 235, N,1-dimethyl-N-(4-methylphenyl)-4-(1-methylpiperidin-4-yl)-2-oxo-1,2-dihydroquinoline-6-carboxamide] | 87% | 94% | 82% | 95% | 89% | 94%

Continued, values first:

inhibition at 0.3 µM [1] | inhibition at 0.3 µM [2] | inhibition at 0.3 µM [3] | inhibition at 0.3 µM [4] | inhibition at 0.3 µM [5] | inhibition at 0.3 µM [6] | SMILES
90% | 93% | 90% | 95% | 91% | 95% | CCn1c(=O)cc(C2CC2)c2cc(-n3c(=O)[nH]c(=O)n3-c3ccccc3)ccc21 [Example 248, 1-(4-cyclopropyl-1-ethyl-2-oxo-1,2-dihydroquinolin-6-yl)-2-phenyl-1,2,4-triazolidine-3,5-dione]
88% | 74% | 88% | 91% | 92% | 91% | CCn1c(=O)cc(N2CCOCC2)c2cc(N(C)C(=O)c3ccc(Cl)cc3)ccc21 [Example 250, 4-chloro-N-(1-ethyl-4-(morpholin-4-yl)-2-oxo-1,2-dihydroquinolin-6-yl)-N-methylbenzamide]
88% | 82% | 86% | 94% | 90% | 92% | CCn1c(=O)cc(C2CC2)c2cc(-c3nc(C)nn3-c3ccccc3)ccc21 [Example 252, 4-cyclopropyl-1-ethyl-6-(3-methyl-1-phenyl-1H-1,2,4-triazol-5-yl)quinolin-2(1H)-one]
85% | 70% | 87% | 92% | 89% | 90% | CCn1c(=O)cc(N2CCOCC2)c2cc(N3C(=O)CC[C@H]3c3ccccc3)ccc21 [Example 253, 1-ethyl-4-(morpholin-4-yl)-6-((5S)-2-oxo-5-phenylpyrrolidin-1-yl)quinolin-2(1H)-one]
87% | 79% | 89% | 94% | 90% | 92% | CCn1c(=O)cc(N2CCOCC2)c2cc(-n3ccnc3-c3ccccc3)ccc21 [Example 255, 1-ethyl-4-(morpholin-4-yl)-6-(2-phenyl-1H-imidazol-1-yl)quinolin-2(1H)-one]
88% | 84% | 86% | 94% | 92% | 93% | CCn1c(=O)cc(N2CCOCC2)c2cc(-n3cc(C)nc3-c3ccccc3)ccc21 [Example 256, 1-ethyl-6-(4-methyl-2-phenyl-1H-imidazol-1-yl)-4-(morpholin-4-yl)quinolin-2(1H)-one]
88% | 84% | 85% | 95% | 91% | 92% | CCn1c(=O)cc(N2CCOCC2)c2cc(-c3nccn3-c3ccccc3)ccc21 [Example 257, 1-ethyl-4-(morpholin-4-yl)-6-(1-phenyl-1H-imidazol-2-yl)quinolin-2(1H)-one]
72% | 26% | 81% | 64% | 83% | 67% | CCn1c(=O)cc(N2CCOCC2)c2cc(-c3ccccc3-c3ccccc3)ccc21 [Example 258, 6-(biphenyl-2-yl)-1-ethyl-4-(morpholin-4-yl)quinolin-2(1H)-one]
88% | 88% | 87% | 94% | 91% | 93% | CCn1c(=O)cc(N2CCOCC2)c2cc(-n3c(-c4ccccc4)cn(CCN4CCOCC4)c3=O)ccc21 [Example 260]
